Experimental data as given in patent publication US10987319B2, “TFEB activator C1 ameliorates app and tau pathology and rescues cognitive deficits in neurodegenerative diseases” (Hong Kong Baptist University, priority 2018, dated 2021).
Where two headings read alike, the source gives them in different places.

Key:
Format in all cases: in vivo
Aβ plaques = assay: Immunohistochemistry of Aβ plaques (4G8 antibody), 5×FAD mice
Method: Male 5×FAD mice were purchased from Jackson laboratories (Stock number 006554) and maintained at 23±2° C. temperature, 60±15% relative humidity with free access to food and water ad libitum. 5×FAD male mice were inbred with wild-type (WT, C57/BL6) female mice to produce heterozygous offspring. Offspring were genotyped to select 5×FAD (APP KM670/671NL (Swedish), APP I716V (Florida), APP V717I (London), PSEN1 M146L (A>C), PSEN1 L286V) gene mutations mice. Two months old WT and 5×FAD mice (male and female, n=10-14 per group) were treated daily with vehicle (1% sodium carbonyl methylcellulose [CMC-Na; Sigma-Aldrich, C5678]), curcumin analogue C1 (5 mg/kg, 10 mg/kg) or curcumin (50 mg/kg; Sigma-Aldrich, 08511) suspended in 1% CMC-Na by oral gavage for 4 months.
Mice half brains were fixed with 4% paraformaldehyde in PBS overnight and dehydrated in 30% sucrose in PBS for at least 24 h. Brain sections (30 μm) were cut on a microtome and stored at 4° C. in PBS+0.1% sodium azide. Sections were permeabilized for 10 min with cold PBS containing 0.5% Triton X-100 and blocked with 3% bovine serum albumin for 1 h at room temperature. The sections were incubated with biotinylated 4G8 antibody (800701, Biolegend) overnight, and then incubated with Avidin-Biotin enzyme complex (Vecstatin-ELITE ABC-HRP kit) and Aβ plaques were visualized by DAB peroxidase and quantified using ImageJ software.

[1] = test system: APP, CTFs, phosphorylated Tau, total Tau, TFEB, LC3-II; assay: Western blotting of hippocampus, female 3×Tg mice
Method: Homozygous 3×Tg mice (APP KM670/671NL (Swedish), MAPT P301L, PSEN1 M146V) were produced in Hong Kong Baptist University animal house and maintained at 23±2° C. temperature, 60±15% relative humidity with free access to food and water ad libitum.
Brain tissues were lysed with RIPA buffer (TBS with 1% NP-40, 1% sodium deoxycholic acid, 0.1% SDS, and protease phosphatase inhibitor cocktails) and centrifuged at 15,000 RPM for 30 min. Supernatant is collected and the pellets were further lysed with 2% SDS in RIPA buffer. Protein concentration was estimated by BCA assay. […] Protein chemiluminescence signal was detected by using ECL kit and quantified using ImageJ software.

[2] = Distribution of C1 in brain regions, plasma and CSF of rats 30 min after oral dosing; settings: Sprague-Dawley, rat, SD rats, 30 min after oral 10 mg/kg
Method: Male C57BL/6 mice and Sprague Dawley rats were purchased from Chinese University of Hong Kong, acclimatized in Hong Kong Baptist university animal house for 2 weeks. Animals were kept for 18 h fasting before the experiment. Curcumin analog C1 and curcumin were suspended in 1% CMC-Na at 10 mg/kg, given to animals through oral route at 10 ml/kg dosing volume. Blood (by heart puncture) and brain samples were collected starting from 0.25, 0.5, 1, 2, 4, 6, 8, 12 and 24 h time points (n=3 for each time point) under chloral hydrate anesthesia at 500 mg/kg (I.P. injection). Based on mice pharmacokinetic study, rat blood, brain and cerebrospinal fluids (CSF) were collected at 30 minutes time point (n=4). All blood samples were collected in heparinized tubes. Plasma was collected by centrifuging at 10,000 rpm for 10 minutes at 4° C. Blood, brain and CSF were stored in −80° C. until further analysis.
Cerebrospinal fluid (CSF) was collected by puncturing Cisterna Magna. Briefly, stereotaxic apparatus (Stoelting, Wood Dale, USA) was used for CSF collection. The tip of CSF collection needle (21G) was placed at the center of stereotaxic apparatus ear bars contact and considered it as zero point. Then rats were anaesthetized with chloral hydrate at 500 mg/kg in saline through intra-peritoneal route. Rats were fixed on the stereotaxic apparatus with 3 cm elevated body position. Rat head was positioned at nearly 110° angle between stereotaxic apparatus frame and rat nose. Cisterna magna location was identified by a 3 mm^2 depressed area between the spine and occipital protuberance in mid-sagittal plane, at 10-12 mm approximate distance from ear. The collection needle was inserted into the Cisterna magna from zero point at A−P: −1.5±1 mm, M−L: 0 mm and D−V: not more than 4-6 mm (from the skin surface). The needle was connected to a 1 ml syringe through a silicon tube. By applying a gentle negative pressure through 1 ml syringe, 100 μl of CSF without any blood contamination was collected.
Whole brain and brain parts were homogenized with 2 weight/volumes of PBS (pH=3.2), spiked with 10 μl of internal standard salbutamol (200 ng/ml in methanol). The homogenate was liquid-liquid extracted with 1 ml of ethyl acetate. 50 μl of 0.5M sodium hydroxide was added to the brain homogenate for efficient C1 extraction. After vigorous sonication and vortex mixing, samples were centrifuged at 15,000 RPM for 10 min. The supernatant was collected and vacuum dried. The samples were reconstituted with 100 μl of mobile phase (0.1% formic acid in acetonitrile), vortex mixed and transferred to an amber colored sampler vial with plastic insert.
100 μl of plasma and CSF was mixed with 100 μl of PBS (pH=3.2), 10 μl of 0.05 M sodium hydroxide and spiked with 10 μl of salbutamol (200 ng/ml in methanol). The mixture was liquid-liquid extracted with 500 μl of ethyl acetate. After vigorous sonication and vortex mixing, samples were centrifuged at 15,000 RPM for 10 min at 4° C. The supernatant was collected and vacuum dried. The samples were reconstituted with 100 μl of mobile phase (0.1% formic acid in acetonitrile), vortex mixed and transferred to an amber colored sampler vial with plastic insert.
UPLC 1290 (Agilent technologies, CA, USA) with binary pump, autosampler system, column with thermostat, vacuum degasser and 6460 QQQ Mass spectrometer was used for compound detection. Chromatographic separation was achieved by waters BEH-C18 (1.7 μm, 2.1×50 mm) column maintained at 40° C. […]

COc1ccccc1/C=C/C(=O)/C=C/c1ccccc1OC [Compound C1, 1,5-bis(2-methoxyphenyl)penta-1,4-dien-3-one]
Aβ plaque load in cortico-hippocampal sections (Aβ plaques; high dosage 10 mg/kg oral 4 months): significant reduction
Aβ plaque load in cortico-hippocampal sections (Aβ plaques; low dosage 5 mg/kg oral 4 months): significant reduction
hippocampal CTFs ([1]; 10 mg/kg oral 7 months): significantly reduced
hippocampal Fl-APP levels ([1]; 10 mg/kg oral 7 months): but not Fl-APP levels
levels of phosphorylated Tau (PHF1, AT8) ([1]; hippocampus, 10 mg/kg oral 7 months): significantly decreased
levels of LC3-II ([1]; oral 7 months): significantly increased
levels of nuclear TFEB ([1]; oral 7 months): significantly increased
concentration at 30 min ([2]; cerebrospinal fluid, read-out: level of C1 in CSF): 102 ± 52.4 ng/mL
concentration at 30 min ([2]; frontal cortex, read-out: concentration of C1 in the frontal cortex): 58 ± 18.6 ng/g
concentration at 30 min ([2]; hippocampus, read-out: concentration of C1 in the hippocampus): 68.4 ± 21.7 ng/g
concentration at 30 min ([2]; plasma, read-out: level of C1 in plasma): 352 ± 21.4 ng/mL
concentration at 30 min ([2]; striatum, read-out: concentration of C1 in the striatum): 4.69 ± 2.19 ng/g
